In patent US10278958B2, “IPA as a protective agent” (IXCELA, INC., priority 2012, dated 2019):
“Also recorded” adds a separate entry of the source.

How the values were obtained:
[1] = tested on: plasma proteins both albumin and imunoglobulins; assay type: in vitro ADME
Description: (§1) IPA is an indole produced in organisms such as c. Sporogenes that have the enzyme to remove the OH from the 2 position on the propionic acid side chain of indole lactic acid an end product of tryptophan metabolism in mammalian species. It is one of several gut metabolites that affect the plasma metabolome. Other organisms such as brewers yeast also show the ability to produce IPA (Sec below a means of producing purified IPA preparations using brewers yeast or similar organisms). […] We have shown that on free radical attack the intermediate positive ion free radical binds to protein as a kynuric acid moiety. […] We also have identified two metabolites of IPA that allow monitoring of levels in excretion samples such as urine which correlate with plasma and brain levels.

whole human plasma = assay: Binding constants for I3PA by serial additions, whole human plasma; details: whole human plasma vs ubiquitin
Description: (§2) In ancillary studies we measured the parent binding constants for I3PA with whole human plasma, HSA, BSA and ubiquitin using serial additions of I3PA to determine the number of molar equivalents of binding sites and mole equivalents of free I3PA. The binding constants (pk) for whole human plasma, HSA and BSA are one the order of 10^3 or greater than for ubiquitin alone. […] Thus, efforts to increase the yield of covalently bound kynuric acid were prevented by over generation of non-covalently bound material. We then decided to attempt this Fenton reaction with I3PA using angiotensin I as the peptide target.

BSA = BSA (Bos taurus, UniProt P02769); assay type: binding
Description: as §2

[2] = Stability of IPA in plasma at room temperature; assay type: in vitro ADME; details: after 7 days at room temperature
Description: FIG. 26 illustrates the first criterion for selecting compounds for targeted methods is that is a progressive biomarkers—as shown by the trend from C to PMHD to HD in the left hand panel for IPA. A practical criterion is stability. […] Method development then involves integrating simplest preparative and instrument protocols for speed and minimum sample size and interferences. A preparative protocol using a simple 3:1 addition of methanol to plasma centrifuging and injecting supernate was matched to a mobile phase, column and detector settings allowing sensitivity to 2 ng/ml, linearity across the range and analysis with no currently determined interferences. […] The third panel illustrates the application of the method to mouse urine in a dose loading study of IPAM showing two metabolites in dosed animals (green) and the same two metabolites in un dosed mice (blue) and in human urine (red).

[3] = Distribution of gut-produced IPA to plasma, brain and CSF; assay type: in vivo, HD mouse models and human; details: for crossing of the blood-brain-barrier: gut-produced IPA, brain and CSF
Description: as §1

[4] = Fenton reaction: disappearance of I3PA; assay type: physicochemical; details: 100 μM H2O2, 10 μM iron sulfate, 100 μM I3PA, 4° C. in the dark, 2 h
Experimental: The reaction mixture was kept at 4° C. in the dark. Every 30 min, a small aliquot of the reaction mixture was diluted 1:10 and injected onto the offline LC-EC array system.

brewers yeast protein = assay: Binding of IPA to brewers yeast protein (10K MW filter) and release in HCl; assay type: physicochemical; details: supernate through a 10K MW filter
Description: In yet another aspect of the disclosure we provide a method for preparation of purified indole therapies. Indoles as a class are subject to degradation and contamination such as the problem encountered with preparations of tryptophan that were related to development basal eosinophilia. Nominally pure commercial sources of indoles when evaluated using ultra-sensitive LCECA techniques show traces of other compounds from the […] to (pg/mg) levels (part per billion to sub part per trillion). These are potentially harmful. Pharmaceutical grade and supplemental tryptophan has now been brought to levels high purity that can be verified by LCECA. To take advantage of this we have developed a protocol for creating high concentrations of IPA using brewers yeast which also produces IPA with relatively good efficiency operating on a substrate of glucose and tryptophan. Brewers yeast as such is a common supplement and present as an extract in typical research mouse feed. Production of IPA in this matrix provides a highly purified IPA in a verifiably and long accepted matrix. As an example a preparation of 1 g of brewers yeast, 500 mg of glucose and 50 mg of tryptophan allowed to incubate to completion at room temperature (90-120 min) in 35 ml of distilled water yields ca. 3 mg of IPA. […]

E. coli = details: culture studies; cited from earlier work
[5] = tested on: Alzheimer β-amyloid protein; details: two examples of oxidative stress; cited from earlier work
[6] = tested on: ischemia-induced neuronal damage; details: mice and hamsters; by reducing DNA damage and lipid peroxidation; cited from earlier work
protein aggregation = details: in vitro; cited from earlier work
[7] = Loading study of IPAM in R6/2 HD mice; assay type: in vivo, mouse
Experimental: A cohort of R6/2 HD mice were dosed daily for 3 weeks intra peritoneal with 200 ug of the IPA derivative amide indole propionamide (IPAM) and compared with undosed R6/2 and their wild type littermates. Feces and urine were collected at the time of sacrifice and blood and brain after sacrifice. The data indicates: • 1. That the brain and plasma levels correlate with urinary levels and thus animals can be tracked in a drug trial without sacrifice. • 2. […] The R6/2 levels of IPA in brain and plasma are lower than in wild type mice. In this study although feces levels were lower the decrease was not significant.

ubiquitin = molecular target: T1, ubiquitin (Homo sapiens, UniProt P0CG47); assay: Fenton reaction of I3PA with ubiquitin, high resolution MS
T1 construct: A calculation of a theoretical value for ubiquitin ([M+H]^+ m/z 8560.6287)
Experimental: A Fenton reaction was performed using the same concentrations of hydrogen peroxide, iron sulfate and I3PA as discussed above. One microliter of a solution of ubiquitin prepared to a concentration of 10 mg/mi was added to the mixture. In addition, a separate tube containing only the Fenton reaction without ubiquitin was prepared and labeled as the negative control. The reaction was kept in the dark at 4° C. for 16 h.
(§3) High resolution MS analysis of the reaction mixtures was performed using a 12-T Qh/FT-ICR hybrid mass spectrometer (SolariX, Bruker Daltonics) that was equipped with a nanospray source operated in the positive mode. Samples were diluted 1:10 in 50/50 methanol/water, 0.5% formic acid and analyzed on the SolariX. Detection of ions in the SolariX was obtained at a resolution of approximately 110,000.

angiotensin I = molecular target: T2, angiotensin I (Homo sapiens, UniProt P01019); assay: Fenton reaction of I3PA with angiotensin I, MS/MS
T2 construct: attempt this Fenton reaction with I3PA using angiotensin I as the peptide target; purchased The American Peptide Co
Experimental: Angiotensin I was obtained from The American Peptide Co in Sunnyvale, Calif., USA. Six tubes were prepared with the following Fenton reaction mixtures: Tubes 1 and 4 contained 100 μM H2O2, 10 μM iron sulfate and 100 μM I3PA; Tubes 2 and 5 contained 100 μM H2O2, 100 μM iron sulfate and 100 μM I3PA. Tubes 3 and 6 contained 100 μM H2O2, 200 μM iron sulfate and 100 μM I3PA. Tubes 4, 5, and 6 also contained 1 μl of angiotensin I prepared to a concentration of 10 mg/ml. A separate tube containing only the Fenton reaction without angiotensin I was prepared and labeled as the negative control. The tubes containing the reaction mixtures were covered with aluminum wrap so that none of the reagents would deteriorate in the ambient light. All reaction mixtures were kept on ice. The tubes were left to react for 30 h.
as §3, with “1:2” for “1:10”, “acid (for positive-ion mode) or 50/50 methanol/water, 0.05% triethylamine (TEA) (VWR Scientific, PA, USA) (for negative-ion mode)” for “acid”, “and were” for “and”, “SolariX in positive and negative modes.” for “SolariX.”, “110,000. […]” for “110,000.”

Sequence of BSA (P02769 25-607): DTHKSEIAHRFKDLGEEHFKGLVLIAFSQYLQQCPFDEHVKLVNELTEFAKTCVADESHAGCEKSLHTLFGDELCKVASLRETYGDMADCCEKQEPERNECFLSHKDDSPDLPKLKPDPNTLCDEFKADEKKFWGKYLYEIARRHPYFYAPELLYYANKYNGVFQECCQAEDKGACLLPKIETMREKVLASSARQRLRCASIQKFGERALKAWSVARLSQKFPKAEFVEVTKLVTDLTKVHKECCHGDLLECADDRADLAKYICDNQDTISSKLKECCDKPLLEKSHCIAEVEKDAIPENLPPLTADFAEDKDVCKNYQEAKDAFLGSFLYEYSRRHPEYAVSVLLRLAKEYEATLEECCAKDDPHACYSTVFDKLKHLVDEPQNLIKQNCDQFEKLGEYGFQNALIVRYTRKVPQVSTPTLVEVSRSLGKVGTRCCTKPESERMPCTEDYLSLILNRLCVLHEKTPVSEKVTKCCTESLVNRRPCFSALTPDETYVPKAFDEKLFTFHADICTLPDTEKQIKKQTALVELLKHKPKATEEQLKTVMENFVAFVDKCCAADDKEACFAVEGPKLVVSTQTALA

For `O=C(O)CCc1c[nH]c2ccccc12` [IPA, indole-3-propionic acid], the “binding to plasma proteins” value [1] was “strongly bound to plasma proteins”, the free levels [1] was “ca. 0.1 ng/ml” and the “loading capacity of plasma for IPA” value [1] was “approximately 10 ug/ml”. For the same molecule, the normal plasma levels [1] was “ca. 200 ug/ml”, the “binding constants (pk) relative to ubiquitin alone” value (whole human plasma) was ~10^3 and the “binding constants (pk) relative to ubiquitin alone” value (BSA) was ~10^3. The degradation in plasma [2] was 5%, the absorption ([3]; animal model and human studies) was “best adsorbed through the gut” and the “crossing of the blood-brain-barrier” value [3] was “crosses the BBB and is found in brain and CSF”. For the same molecule, the “crossing of the blood-brain-barrier” value ([3]; listed as I3PA) was “did cross the blood-brain-barrier; also recorded: crosses the blood-brain-barrier”, the “transfer from gut to plasma” value ([3]; residual fecal levels vs plasma levels) was “majority of IPA produced is transferred to plasma” and the “oxidative stability in Fenton reaction” value [4] was “disappearance of I3PA”. For the same molecule, the “IPA coordinately bound to brewers yeast protein” value (brewers yeast protein) was 75-80%, the “effect on other microbial species” value (E. coli) was “suppress other microbial species such as E. coli” and the neuroprotection [5] was “strong levels of neuroprotection”. For the same molecule, the protection of neurons [6] was “protects neurons from ischemia-induced neuronal damage” and the “effect on protein aggregation” value (protein aggregation) was “suppress protein aggregation”.

For indole propionamide [IPAM], the “conversion of IPAM to IPA” value ([7]; intra peritoneal 200 ug daily for 3 weeks, R6/2 mice, blood/plasma vs gut) was “converted rapidly in the blood to IPA but less rapidly in the gut; also recorded: rapidly converted to IPA in the plasma; also recorded: converted rapidly to I3PA in plasma and less rapidly in the gut” and the urinary metabolites ([7]; mouse urine of dosed animals) was “probable glucuronide type Phase II metabolite compounds”.

In the case of kynuric acid, the “binding of I3PA oxidation product to ubiquitin” value (ubiquitin) is reported as “bound both covalently and co-coordinately” and the “covalent binding site on angiotensin I” value (angiotensin I) is reported as “Tyr4”.
